Assay results reported in ChEMBL document CHEMBL1201862, “PubChem BioAssay data set” (2004).
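Interpolation was linear, between the two tested concentrations surrounding the appropriate level; five concentrations were tested over 48 hours in 96-well plates. Abbreviation: GI50, concentration required for 50% inhibition of growth.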 Calls of active or inactive are those of the source. Rule as the data show it: active = GI50 up to about 1.1 µM and inactive = higher.

Tests used:
Test in all cases: inhibition of tumour cell growth, NCI panel, 48 h
[1] = tested on: Malme-3M
[2] = tested on: NCI/ADR-RES
[3] = tested on: SF-295
[4] = tested on: MDA-N
[5] = tested on: NCI-H460
[6] = tested on: OVCAR-8
[7] = tested on: SK-MEL-2
[8] = tested on: SF-268
[9] = tested on: UACC-257
[10] = tested on: OVCAR-4
[11] = tested on: ACHN
[12] = tested on: MCF7
[13] = tested on: MDA-MB-231
[14] = tested on: SNB-19
[15] = tested on: UO-31
[16] = tested on: Hs-578T
[17] = tested on: BT-549
[18] = tested on: OVCAR-3
[19] = tested on: HCT-116
[20] = tested on: SK-MEL-5
[21] = tested on: COLO 205
[22] = tested on: U-251
[23] = tested on: SN12C
[24] = tested on: RPMI-8226
[25] = tested on: UACC-62
[26] = tested on: KM12
[27] = tested on: RXF 393
[28] = tested on: 786-0
[29] = tested on: TK-10
[30] = tested on: IGROV-1
[31] = tested on: HOP-92
[32] = tested on: HCC 2998
[33] = tested on: A498
[34] = tested on: EKVX
[35] = tested on: HCT-15
[36] = tested on: MOLT-4
[37] = tested on: NCI-H522
[38] = tested on: NCI-H226
[39] = tested on: SK-MEL-28
[40] = tested on: DU-145
[41] = tested on: NCI-H23
[42] = tested on: SW-620
[43] = tested on: A549
[44] = tested on: LOX IMVI
[45] = tested on: M14
[46] = tested on: HT-29
[47] = tested on: CAKI-1
[48] = tested on: OVCAR-5
[49] = tested on: MDA-MB-435
[50] = tested on: SF-539
[51] = tested on: T47D
[52] = tested on: PC-3
[53] = tested on: K562
[54] = tested on: SNB-75
[55] = tested on: SR

## CCOC1OC(CO[Si](C)(C)C(C)(C)C)C(O)CC1n1ccc(=O)[nH]c1=O (stereo not given)
[1]
  GI50: > 100 µM (inactive)
[2]
  GI50: > 100 µM (inactive)
[3]
  GI50: > 100 µM (inactive)
[4]
  GI50: > 100 µM (inactive)
[5]
  GI50: 81.3 µM (inactive)
[6]
  GI50: 33.7 µM (inactive)
[7]
  GI50: > 100 µM (inactive)
[8]
  GI50: 30.8 µM (inactive)
[9]
  GI50: > 100 µM (inactive)
[10]
  GI50: > 100 µM (inactive)
[11]
  GI50: > 100 µM (inactive)
[12]
  GI50: 31.5 µM (inactive)
[13]
  GI50: 67 µM (inactive)
[14]
  GI50: > 100 µM (inactive)
[15]
  GI50: > 100 µM (inactive)
[16]
  GI50: > 100 µM (inactive)
[17]
  GI50: > 100 µM (inactive)
[18]
  GI50: 43.8 µM (inactive)
[19]
  GI50: 17.1 µM (inactive)
[20]
  GI50: 59.2 µM (inactive)
[21]
  GI50: 80.5 µM (inactive)
[22]
  GI50: > 100 µM (inactive)
[23]
  GI50: > 100 µM (inactive)
[24]
  GI50: 49.8 µM (inactive)
[25]
  GI50: > 100 µM (inactive)
[26]
  GI50: 88.7 µM (inactive)
[27]
  GI50: 30.8 µM (inactive)
[28]
  GI50: 78.3 µM (inactive)
[29]
  GI50: > 100 µM (inactive)
[30]
  GI50: 21.5 µM (inactive)
[31]
  GI50: 85.7 µM (inactive)
[32]
  GI50: > 100 µM (inactive)
[33]
  GI50: > 100 µM (inactive)
[34]
  GI50: > 100 µM (inactive)
[35]
  GI50: 35.6 µM
[36]
  GI50: 27.7 µM (inactive)
[37]
  GI50: 20.6 µM (inactive)
[38]
  GI50: > 100 µM (inactive)
[39]
  GI50: 61.4 µM (inactive)
[40]
  GI50: > 100 µM (inactive)
[41]
  GI50: > 100 µM (inactive)
[42]
  GI50: 23.2 µM (inactive)
[43]
  GI50: 51.5 µM (inactive)
[44]
  GI50: 17.4 µM (inactive)
[45]
  GI50: 26.8 µM (inactive)
[46]
  GI50: 47.5 µM (inactive)
[47]
  GI50: 56.4 µM (inactive)
[48]
  GI50: > 100 µM (inactive)
[49]
  GI50: > 100 µM (inactive)
[50]
  GI50: 75.7 µM (inactive)
[51]
  GI50: 52 µM (inactive)
[52]
  GI50: 64.7 µM (inactive)
[53]
  GI50: 31.9 µM (inactive)
[54]
  GI50: > 100 µM (inactive)
[55]
  GI50: 42.6 µM (inactive)
